“And” between values parts separate entries of the source, which are not always exact repeats. Equal values may be shown once. “Also recorded” adds a separate entry of the source.
Columns and labels:
Pst_13661 = Pst_13661 (Puccinia striiformis f. sp. tritici, UniProt A0A0L0V0Y3, T32S); type: biochemical
VdPDA1 [1] = biological target: T1, VdPDA1 (Verticillium dahliae, UniProt G2X9U7); type: biochemical
R. solani strain RS-1 = type: cell-based
V. dahliae = details: in vivo
[2] = system: P. striiformis f. sp. tritici (strain CYR32); set-up: species or system P. striiformis f. sp. tritici on wheat; details: in vivo
BmCDA7 = BmCDA7 (Bombyx mori, UniProt H9JW44)
BmCDA7, sequence (H9JW44 16-364): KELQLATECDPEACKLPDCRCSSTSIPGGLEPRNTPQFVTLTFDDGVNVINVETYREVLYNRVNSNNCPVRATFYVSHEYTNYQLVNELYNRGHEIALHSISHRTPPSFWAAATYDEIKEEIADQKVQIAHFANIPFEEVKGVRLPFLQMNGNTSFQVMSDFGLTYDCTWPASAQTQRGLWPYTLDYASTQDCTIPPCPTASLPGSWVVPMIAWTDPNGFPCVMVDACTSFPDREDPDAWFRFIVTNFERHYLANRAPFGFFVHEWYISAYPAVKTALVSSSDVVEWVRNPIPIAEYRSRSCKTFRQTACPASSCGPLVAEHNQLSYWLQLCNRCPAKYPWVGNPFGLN
From the text: Effect o f BHA o n the activity of BmCDA7 from the insect Bombyx
mori. Bars in all graphs represent mean values, whiskers represent mean ± SEM, and black

F. graminearum = system: F. graminearum; set-up: species or system F. graminearum strain Fg-1 on soybean; details: in vivo
[3] = system: F. graminearum strain Fg-1; type: cell-based
V. dahliae strain V991 = type: cell-based, Verticillium dahliae
GhRbohD = system: GhRbohD; set-up: species or system Gossypium hirsutum cv. Lvmian; details: in vivo
R. solani = system: R. solani; set-up: species or system R. solani strain RS-1 on soybean; details: in vivo
T. harzianum T27 = type: cell-based, Trichoderma harzianum
GhMPK6 = system: GhMPK6; set-up: species or system Gossypium hirsutum cv. Lvmian; details: in vivo
F. oxysporum = system: F. oxysporum; set-up: species or system F. oxysporum strain Fo-2 on soybean; details: in vivo
F. oxysporum strain Fo-2 = type: cell-based
VdPDA1 [4] = biological target: T1, VdPDA1; assay: biochemical
Method: The enzymatic activity of recombinantly expressed proteins was assayed using a fluorogenic labeling method[29]. The reaction mixture consisted of 100 μL of 100 nM testing enzyme and 0.5 mM (GlcNAc)3 in a 50 mM Hepes (pH 7.5) buffer. After incubation for 10 min at 30 °C, free amine production was measured using fluorescamine labeling and quantified with a glucosamine standard. All measurements were carried out in triplicate.
The compounds were screened to identify the small molecules inhibiting VdPDA1 and Pst_13661 using a liquid-handling robot. The compounds were prepared in a 96-well plate containing one compound per well at 10 mM each in 100% DMSO (except for BHA, which was dissolved in ddH2O). The plates were first diluted to 5 mM. The compounds were screened at 100 μM in 2% DMSO in a final reaction volume of 100 μL, containing 100 nM enzyme and 0.5 mM (GlcNAc)3 in 50 mM Hepes (pH 7.5) buffer. Negative enzyme-free controls and positive controls with and without DMSO were prepared. The plates were incubated at 30 °C for 10 min. All measurements were carried out in triplicate.
For the determination of the inhibition constants Ki, three substrate (GlcNAc)3 concentrations (0.5, 0.2, and 0.1 mM) and varied inhibitor concentrations were used. The Ki values were determined using Dixon plots[56]. In Dixon plots, the value of lines intersection that converges above the x-axis is denoted as Ki. […]

Q: [Ni+2] [Ni2+] was tested. Which “Fig. S1c enzyme activity, Exp1” value (Pst_13661) did it give?
A: 49.78

Q: What about the “Fig. S1c enzyme activity, Exp2” value (Pst_13661) of the same molecule?
A: 47.40

Q: What about the “Fig. S1c enzyme activity, Exp3” value (Pst_13661) of the same molecule?
A: 46.47

Q: And the “Fig. S1c enzyme activity, Mean” value (Pst_13661)?
A: 47.88

Q: And the “Fig. S1d enzyme activity, Exp1” value (VdPDA1 [1])?
A: 36.44

Q: And the “Fig. S1d enzyme activity, Exp2” value (VdPDA1 [1])?
A: 38.96

Q: What about the “Fig. S1d enzyme activity, Exp3” value (VdPDA1 [1]) of the same molecule?
A: 38.03

Q: And the “Fig. S1d enzyme activity, Mean” value (VdPDA1 [1])?
A: 37.81

Q: O=C(O)c1cccc(C(=O)O)n1 [DPA] was tested. Which “Fig. S1c enzyme activity, Exp1” value (Pst_13661) did it give?
A: 4.96

Q: And the “Fig. S1c enzyme activity, Exp2” value (Pst_13661)?
A: 8.16

Q: What about the “Fig. S1c enzyme activity, Exp3” value (Pst_13661) of the same molecule?
A: 14.56

Q: What about the “Fig. S1c enzyme activity, Mean” value (Pst_13661) of the same molecule?
A: 9.23

Q: And the “Fig. S1d enzyme activity, Exp1” value (VdPDA1 [1])?
A: 0.31

Q: And the “Fig. S1d enzyme activity, Exp2” value (VdPDA1 [1])?
A: -0.24

Q: What about the “Fig. S1d enzyme activity, Exp3” value (VdPDA1 [1]) of the same molecule?
A: -0.41

Q: And the “Fig. S1d enzyme activity, Mean” value (VdPDA1 [1])?
A: -0.11

Q: O=C(NO)c1ccccc1 [Compound 1, benzohydroxamic acid] was tested. Which “Fungal growth (Fig. S3b), Mean” value (R. solani strain RS-1) did it give?
A: 3.03 and 3.13

Q: What about the “Growth and morphology of R. solani” value (R. solani strain RS-1) of the same molecule?
A: normal morphology and developmental status; also recorded: does not affect the growth

Q: What about the “Fungal biomass on cotton plants” value (V. dahliae) of the same molecule?
A: significantly reduced

Q: What about the “Fungal biomass on cotton plants (Fig. 3c) Mean” value (V. dahliae) of the same molecule?
A: 0.5294 and 0.2725

Q: And the “Wilt symptoms of cotton plants” value (V. dahliae)?
A: did not exhibit wilt symptoms

Q: What about the “Disease indices after P. striiformis f. sp. tritici infection of wheat plants” value [2] of the same molecule?
A: greatly declined

Q: What about the “Activity of BmCDA7 (Fig. S4), Mean” value (BmCDA7) of the same molecule?
A: 101.71 and 105.43

Q: What about the “Inhibition of insect chitin deacetylases” value (BmCDA7) of the same molecule?
A: could not inhibit

Q: And the “Fungal biomass of soybean hypocotyls” value (F. graminearum)?
A: significantly reduced fungal biomass

Q: What about the “Lesions on soybean hypocotyls” value (F. graminearum) of the same molecule?
A: fewer lesions

Q: What about the “Fungal growth (Fig. S3b), Mean” value [3] of the same molecule?
A: 4.15 and 4.13 and 4.08

Q: What about the “Growth and morphology of F. graminearum” value [3] of the same molecule?
A: normal morphology and developmental status; also recorded: does not affect the growth

Q: And the “Colony morphology and hyphae growth of V. dahliae” value (V. dahliae strain V991)?
A: not affected

Q: And the “Fungal growth (Fig. S3b), Mean” value (V. dahliae strain V991)?
A: 3.65 and 3.60 and 3.58

Q: And the “GhRbohD expression in cotton roots” value (GhRbohD)?
A: upregulated

Q: What about the “Fungal biomass of soybean hypocotyls” value (R. solani) of the same molecule?
A: significantly reduced fungal biomass

Q: And the “Lesions on soybean hypocotyls” value (R. solani)?
A: fewer lesions

Q: And the “Fungal growth (Fig. S3b), Mean” value (T. harzianum T27)?
A: 3.65 and 3.63

Q: And the “Growth of Trichoderma harzianum” value (T. harzianum T27)?
A: does not affect the growth

Q: What about the “GhMPK6 expression in cotton roots” value (GhMPK6) of the same molecule?
A: upregulated

Q: What about the “Fungal biomass of soybean hypocotyls” value (F. oxysporum) of the same molecule?
A: significantly reduced fungal biomass

Q: And the “Fungal biomass of soybean hypocotyls (Fig. 5h) Mean” value (F. oxysporum)?
A: 0.6738 and 0.6606 and 0.4822

Q: And the “Lesions on soybean hypocotyls” value (F. oxysporum)?
A: fewer lesions

Q: And the “Fungal growth (Fig. S3b), Mean” value (F. oxysporum strain Fo-2)?
A: 2.98 and 2.90 and 2.95

Q: What about the “Growth and morphology of F. oxysporum” value (F. oxysporum strain Fo-2) of the same molecule?
A: normal morphology and developmental status; also recorded: does not affect the growth

Q: What about the Ki (VdPDA1 [4]) of the same molecule?
A: 8.31 µM

Q: How did the “Fig. S1c enzyme activity, Exp1” value (Pst_13661) turn out when [Zn+2] [Zn2+] was run?
A: 97.91

Q: And the “Fig. S1c enzyme activity, Exp2” value (Pst_13661)?
A: 92.55

Q: What about the “Fig. S1c enzyme activity, Exp3” value (Pst_13661) of the same molecule?
A: 105.61

Q: And the “Fig. S1c enzyme activity, Mean” value (Pst_13661)?
A: 98.69

Q: And the “Fig. S1d enzyme activity, Exp1” value (VdPDA1 [1])?
A: 76.18

Q: What about the “Fig. S1d enzyme activity, Exp2” value (VdPDA1 [1]) of the same molecule?
A: 78.11

Q: What about the “Fig. S1d enzyme activity, Exp3” value (VdPDA1 [1]) of the same molecule?
A: 78.27

Q: And the “Fig. S1d enzyme activity, Mean” value (VdPDA1 [1])?
A: 77.52

From article PMC10310857 (Nature Communications, 2023)
